Measured values reported in US10947188B2, “Small molecule ferroptosis inducers” (THE TRUSTEES OF COLUMBIA UNIVERSITY IN THE CITY OF NEW YORK, priority 2016, dated 2021).

Test system: HT-1080
Experiment: Modulatory profiling: Alamar Blue viability, lethal compound cotreated with death modulator (EC50, AUC); for AUC HT.BHA: reference of the scale not given here; for AUC HT.EGTA: reference of the scale not given here
Type: cell-based
Set-up: AUC, modulator HT.3MA / AUC, modulator HT.ALLN / AUC HT.ATA / AUC HT.ActD / AUC HT.BHA / AUC HT.BHT / AUC HT.BocD / AUC HT.CHX / AUC HT.Co2+ / AUC HT.DPQ / AUC HT.EGTA / AUC HT.Lmim / AUC HT.NAD+ / AUC HT.Nec-1 / AUC HT.SP600125 / AUC HT.TLCK / AUC HT.U0126: unit not given beside the values
Conditions: for AUC HT.ATA: HT-1080, modulator ATA; for AUC HT.ActD: HT-1080, modulator ActD; for AUC HT.BHA: HT-1080, modulator BHA; for AUC HT.BHT: HT-1080, modulator BHT; for AUC HT.BocD: HT-1080, modulator BocD; for AUC HT.CHX: HT-1080, modulator CHX; for AUC HT.Co2+: HT-1080, modulator Co2+; for AUC HT.CspA: HT-1080, modulator CspA; for AUC HT.DPQ: HT-1080, modulator DPQ; for AUC HT.EGTA: HT-1080, modulator EGTA; for AUC HT.Gd3+: HT-1080, modulator Gd3+; for AUC HT.LNAME: HT-1080, modulator LNAME; for AUC HT.Lmim: HT-1080, modulator Lmim; for AUC HT.NAD+: HT-1080, modulator NAD+; for AUC HT.NMMA: HT-1080, modulator NMMA; for HT.atoc (AUC) / HT.bCarotene (AUC) / HT.deferox (AUC) / HT.digoxin (AUC) / HT.trolox (AUC) / HT.zVAD (AUC) / EC50: HT-1080; for HT.atoc (AUC): modulator atoc; for HT.bCarotene (AUC): modulator bCarotene; for HT.deferox (AUC): modulator deferox; for HT.digoxin (AUC): modulator digoxin; for HT.trolox (AUC): modulator trolox; for HT.zVAD (AUC): modulator zVAD; for AUC, modulator HT.3MA / AUC, modulator HT.ALLN: HT-1080 cells, modulatory profile value (AUC); for AUC, modulator HT.3MA: lethal compound cotreated with modulator 3MA; for AUC, modulator HT.ALLN: lethal compound cotreated with modulator ALLN; for AUC HT.Nec-1: HT-1080, modulator Nec-1; for AUC HT.Pepstatin: HT-1080, modulator Pepstatin; for AUC HT.SP600125: HT-1080, modulator SP600125; for AUC HT.TLCK: HT-1080, modulator TLCK; for AUC HT.U0126: HT-1080, modulator U0126; for EC50: Homo sapiens, HT-1080, 48 h, 48 h

| SMILES | AUC HT.ATA | AUC HT.ActD | AUC HT.BHA | AUC HT.BHT | AUC HT.BocD | AUC HT.CHX | AUC HT.Co2+ | AUC HT.CspA | AUC HT.DPQ | AUC HT.EGTA | AUC HT.Gd3+ | AUC HT.LNAME | AUC HT.Lmim | AUC HT.NAD+ | AUC HT.NMMA | HT.atoc (AUC) | HT.bCarotene (AUC) | HT.deferox (AUC) | HT.digoxin (AUC) | HT.trolox (AUC) | also measured |
| --- | --- | --- | --- | --- | --- | --- | --- | --- | --- | --- | --- | --- | --- | --- | --- | --- | --- | --- | --- | --- | --- |
| CCc1ccc(/C=C2/SC(=O)N(CCC(C)NCCCN3CCOCC3)C2=O)cc1 (stereo not shown) [CIL46] | 0.0162 | −0.02916 | −0.1015 | −0.1471 | −0.04371 | −0.01909 | −0.1082 | 0.0003356 | −0.001692 | −0.01699 | −0.008617 | −0.02805 | −0.03166 | −0.06754 | 0.001557 | 0.04736 | −0.01026 | 0.03467 | −0.04671 | −0.0145 | HT.zVAD (AUC): 0.01724; AUC, modulator HT.3MA: 0.08624; AUC, modulator HT.ALLN: 0.03767 |
| CC(/C=C/C(=O)NO)=C\[C@@H](C)C(=O)c1ccc(N(C)C)cc1 [TrichostatinA] | −0.0004817 | −0.1678 | −0.06956 | −0.1352 | 0.04109 | −0.09696 | −0.02771 | −0.1437 | −0.001553 | −0.01711 | −0.003398 | 0.003502 | −0.05021 | 0.03432 | 0.004335 | −0.005062 | −0.03472 | −0.1597 | −0.1261 | −0.03382 | AUC HT.Nec-1: −0.07289; AUC HT.Pepstatin: −0.003985; AUC HT.SP600125: −0.06865; AUC HT.TLCK: −0.02599; AUC HT.U0126: −0.06468; HT.zVAD (AUC): 0.04012; AUC, modulator HT.3MA: −0.1241; AUC, modulator HT.ALLN: −0.1481 |
| O=C(CCl)N(c1ccccc1)c1c[nH]c2ccccc12 [CIL69] | −0.005358 | −0.004265 | 0.2489 | 0.2227 | −0.03457 | 0.03395 | 0.07132 | 0.009848 | −0.006588 | 0.06032 | −0.01446 | −0.04538 | 0.1792 | 0.03637 | −0.04048 | 0.3456 | −0.0167 | 0.3005 | −0.0261 | 0.2631 | HT.zVAD (AUC): −0.0004734; effect of ferroptosis inhibitors (iron chelators and lipophilic antioxidants) on lethality in modulatory profiling (HT-1080 and BJeLR): suppression by canonical ferroptosis inhibitors; EC50 (DMSO): 0.551 µM; EC50 (cotreated with MEK inh U0126): 5.75 µM; EC50 (cotreated with antioxidant Atoc): 6.13 µM; EC50 (cotreated with antioxidant BHA): 4.79 µM; EC50 (cotreated with antioxidant BHT): 3.28 µM; EC50 (cotreated with antioxidant Trolox): 4.26 µM; EC50 (cotreated with iron-chelator Deferoxamine): 9.29 µM; EC50 (cotreated with iron-chelator Lmim): 4.79 µM |
| CN(C)CCCOS(=O)(=O)c1ccc(N2CCC(c3ccc(Cl)cc3)=N2)cc1 [CIL40] | 0.06692 | −0.06544 | −0.09372 | −0.1505 | 0.01176 | −0.02863 | 0.04911 | −0.04697 | 0.04908 | −0.02642 | −0.0186 | −0.01999 | 0.0004825 | −0.04749 | −0.006901 | 0.1232 | −0.01785 | −0.08111 | −0.03539 | −0.02768 | HT.zVAD (AUC): 0.01717; AUC, modulator HT.3MA: 0.0807; AUC, modulator HT.ALLN: 0.1761 |
| C=C(C)[C@H]1Cc2c(ccc3c2O[C@@H]2COc4cc(OC)c(OC)cc4[C@@H]2C3=O)O1 [Rotenone] | 0.05899 | 0.1062 | −0.02184 | 0.02467 | 0.05103 | 0.07793 | 0.2003 | −0.1722 | −0.005403 | 0.002258 | 0.01051 | −0.007377 | 0.1413 | 0.1563 | 0.007832 | 0.04769 | 0.003594 | 0.347 | 0.1617 | 0.003895 | AUC HT.Nec-1: 0.003921; AUC HT.Pepstatin: −0.02255; AUC HT.SP600125: −0.01964; AUC HT.TLCK: 0.0438; AUC HT.U0126: 0.1384; HT.zVAD (AUC): 0.01972; AUC, modulator HT.3MA: 0.06289; AUC, modulator HT.ALLN: 0.07973 |
| O=C1c2c(O)ccc(O)c2C(=O)c2c(NCCNCCO)ccc(NCCNCCO)c21 [Mitoxantrone] | 0.02422 | −0.02073 | 0.02091 | −0.0249 | 0.06802 | 0.04002 | 0.3817 | −0.1127 | 0.006504 | 0.01802 | 0.03227 | 0.01298 | 0.05678 | 0.1502 | 0.0236 | 0.04839 | −0.003915 | 0.1001 | 0.1321 | −0.01388 | AUC HT.Nec-1: 0.01073; AUC HT.Pepstatin: 0.02067; AUC HT.SP600125: −0.01575; AUC HT.TLCK: 0.06003; AUC HT.U0126: −0.03205; HT.zVAD (AUC): 0.03446; AUC, modulator HT.3MA: 0.02955; AUC, modulator HT.ALLN: 0.07355 |
